Test results from patent US6573246B1, “Modified ether glyceroglycolipids” (The Liposome Company, Inc., priority 1995, dated 2003).
Where two headings read alike, the source gives them in different places.

Legend:
Type in all cases: cell-based, human
[1] = system: MCF-7 (breast adenocarcinoma) cells; experiment: growth inhibition of MCF-7 cells in culture; settings: MCF-7; for IC50 / proliferation: increase in cell numbers relative to control wells (control = 100): 72 h; for IC50: read-out: Gl50 (concentration that inhibited cell growth by 50% in comparison to control cultures)
Procedure: (§1) Human epithelial cancer cell lines were grown from frozen stocks originally obtained from the ATCC, in media commonly used for growing these cells in culture. For example, A549 cells (non-small cell lung adenocarcinoma) were cultured in Ham's F-12 medium, T84 cells (colon carcinoma) were cultured in a 1:1 mixture of F-12 and DMEM while MCF-7 (breast adenocarcinoma) and A427 (large cell lung carcinoma) cells were cultured in DMEM. The media were supplemented with 10% fetal bovine serum, penicillin (50 U/ml), streptomycin (50 micogram/ml) and fungizone (0.5 microgram/ml). OVCAR-3 cells (ovarian adenocarcinoma) were cultured in RPMI 1640 medium supplemented with 20% FBS and 10 microgram/ml insulin.
(§2) Cells were subcultured into 24-well plates and the cell number was monitored daily. When the cells were in log phase, the media was replaced with one containing the required drug concentration, and the cells were incubated for 72 h. The increase in cell numbers relative to control wells (without any drug) was determined after the incubation. Stock solutions of the drugs ([…]) were prepared in ethanol and stored at −20 deg. C. Etherlipid solutions (30 micromolar) in the appropriate media were prepared fresh on the day of the experiment and serially diluted to give the required concentrations. The final concentration of ethanol in all wells was 0.1% (v/v).
(§3) Gl50 values are given as the mean ± standard deviation; the Gl50 value from each experiment “n” was generated from three individual wells on two separate plates (six total wells); n=1 for compounds 3-6; n=2 for most cell lines treated with compound 2 ^an=3; ^bn=2; ^cn=6; ^dn=8.

[2] = system: A549 cells (non-small cell lung adenocarcinoma); experiment: growth inhibition of A549 cells in culture; settings: for IC50 / proliferation: increase in cell numbers relative to control wells (control = 100): 72 h; for IC50: read-out: Gl50 (concentration that inhibited cell growth by 50% in comparison to control cultures)
Procedure: as §1, §2, §3

[3] = system: OVCAR-3 cells (ovarian adenocarcinoma); experiment: growth inhibition of OVCAR-3 cells in culture; settings: for growth: increase in cell numbers relative to control wells (control = 100): OVCAR-3, 72 h; for IC50: OVCAR-3 ovarian cancer cell line, read-out: Gl50 (the source's name)
Procedure: as §1, §2

[4] = system: A427 (large cell lung carcinoma) cells; experiment: growth inhibition of A427 cells in culture; settings: for IC50 / proliferation: increase in cell numbers relative to control wells (control = 100): 72 h; for IC50: read-out: Gl50 (concentration that inhibited cell growth by 50% in comparison to control cultures)
Procedure: as §1, §2

[5] = system: T84 cells (colon carcinoma); experiment: growth inhibition of T84 cells in culture; settings: for IC50 / proliferation: increase in cell numbers relative to control wells (control = 100): 72 h; for IC50: read-out: Gl50 (concentration that inhibited cell growth by 50% in comparison to control cultures)
Procedure: as §1, §2

CCCCCCCCCCCCCCCCOC[C@H](CO[C@@H]1O[C@H](CO)[C@@H](O)[C@H](O)[C@H]1N)OC [A, 1-O-hexadecyl-2-O-methyl-3-O-(2′-amino-2′-deoxy-β-D-glucopyranosyl)-sn-glycerol]
concentration cytotoxic to the cells ([1]; 10% FBS-supplemented medium): 16 µM | IC50 ([1]; 10% FBS-supplemented medium): 6.5 µM | proliferation: increase in cell numbers relative to control wells (control = 100) ([1]; lipid concentration 5 μM): 60.60 ± 7.14 | proliferation: increase in cell numbers relative to control wells (control = 100) ([1]; lipid concentration 6.5 μM): 44.05 ± 11.70 | proliferation: increase in cell numbers relative to control wells (control = 100) ([1]; lipid concentration 8.0 μM): 31.46 ± 5.56 | proliferation: increase in cell numbers relative to control wells (control = 100) ([1]; lipid concentration 10 μM): 14.42 ± 8.39 | proliferation: increase in cell numbers relative to control wells (control = 100) ([1]; lipid concentration 12.5 μM): 3.90 ± 5.75 | proliferation: increase in cell numbers relative to control wells (control = 100) ([1]; lipid concentration 15 μM): 0 | proliferation: increase in cell numbers relative to control wells (control = 100) ([1]; lipid concentration 20 μM): 0 | concentration cytotoxic to the cells ([2]; 10% FBS-supplemented medium): 10.5 µM | IC50 ([2]; 10% FBS-supplemented medium): 8.3 µM | proliferation: increase in cell numbers relative to control wells (control = 100) ([2]; lipid concentration 5 μM): 82.28 ± 4.66 | proliferation: increase in cell numbers relative to control wells (control = 100) ([2]; lipid concentration 6.5 μM): 67.39 ± 6.18 | proliferation: increase in cell numbers relative to control wells (control = 100) ([2]; lipid concentration 8.0 μM): 45.17 ± 12.06 | proliferation: increase in cell numbers relative to control wells (control = 100) ([2]; lipid concentration 10 μM): 0 | proliferation: increase in cell numbers relative to control wells (control = 100) ([2]; lipid concentration 12.5 μM): 0 | proliferation: increase in cell numbers relative to control wells (control = 100) ([2]; lipid concentration 15 μM): 0 | proliferation: increase in cell numbers relative to control wells (control = 100) ([2]; lipid concentration 20 μM): 0 | growth: increase in cell numbers relative to control wells (control = 100) ([3]; lipid concentration 5 μM): 42.9 ± 13.4 | growth: increase in cell numbers relative to control wells (control = 100) ([3]; lipid concentration 10 μM): 7.7 ± 2.3 | growth: increase in cell numbers relative to control wells (control = 100) ([3]; lipid concentration 15 μM): 0 | IC50 [3]: 12 µM | concentration cytotoxic to the cells ([4]; 10% FBS-supplemented medium): 10.5 µM | IC50 ([4]; 10% FBS-supplemented medium): 7 µM | proliferation: increase in cell numbers relative to control wells (control = 100) ([4]; lipid concentration 5 μM): 68.98 ± 9.25 | proliferation: increase in cell numbers relative to control wells (control = 100) ([4]; lipid concentration 6.5 μM): 49.74 ± 5.16 | proliferation: increase in cell numbers relative to control wells (control = 100) ([4]; lipid concentration 8.0 μM): 4.29 ± 5.16 | proliferation: increase in cell numbers relative to control wells (control = 100) ([4]; lipid concentration 10 μM): 0 | proliferation: increase in cell numbers relative to control wells (control = 100) ([4]; lipid concentration 12.5 μM): 0 | proliferation: increase in cell numbers relative to control wells (control = 100) ([4]; lipid concentration 15 μM): 0 | proliferation: increase in cell numbers relative to control wells (control = 100) ([4]; lipid concentration 20 μM): 0 | concentration cytotoxic to the cells ([5]; 10% FBS-supplemented medium): 20 µM | IC50 ([5]; 10% FBS-supplemented medium): 12.2 µM | proliferation: increase in cell numbers relative to control wells (control = 100) ([5]; lipid concentration 5 μM): 89.71 ± 12.72 | proliferation: increase in cell numbers relative to control wells (control = 100) ([5]; lipid concentration 7.5 μM): 75.16 ± 10.79 | proliferation: increase in cell numbers relative to control wells (control = 100) ([5]; lipid concentration 10 μM): 64.89 ± 11.56 | proliferation: increase in cell numbers relative to control wells (control = 100) ([5]; lipid concentration 12.5 μM): 39.59 ± 9.50 | proliferation: increase in cell numbers relative to control wells (control = 100) ([5]; lipid concentration 15 μM): 15.06 ± 7.23 | proliferation: increase in cell numbers relative to control wells (control = 100) ([5]; lipid concentration 20 μM): 0

CCCCCCCCCCCCCCCCOC[C@H](CO[C@@H]1O[C@H](CO)[C@@H](O)[C@H](O)[C@H]1NC(C)=O)OC [B, 1-O-hexadecyl-2-O-methyl-3-O-(2′-acetamido-2′-deoxy-β-D-glucopyranosyl)-sn-glycerol]
IC50 ([1]; 10% FBS-supplemented medium): 17 µM | proliferation: increase in cell numbers relative to control wells (control = 100) ([1]; lipid concentration 5 μM): 81 ± 8 | proliferation: increase in cell numbers relative to control wells (control = 100) ([1]; lipid concentration 10 μM): 71 ± 6 | proliferation: increase in cell numbers relative to control wells (control = 100) ([1]; lipid concentration 15 μM): 58 ± 5 | proliferation: increase in cell numbers relative to control wells (control = 100) ([1]; lipid concentration 20 μM): 38 ± 2 | proliferation: increase in cell numbers relative to control wells (control = 100) ([1]; lipid concentration 30 μM): 6 ± 3 | IC50 ([2]; 10% FBS-supplemented medium): 9 µM | proliferation: increase in cell numbers relative to control wells (control = 100) ([2]; lipid concentration 5 μM): 91 ± 9 | proliferation: increase in cell numbers relative to control wells (control = 100) ([2]; lipid concentration 10 μM): 45 ± 3 | proliferation: increase in cell numbers relative to control wells (control = 100) ([2]; lipid concentration 15 μM): 15 ± 2 | proliferation: increase in cell numbers relative to control wells (control = 100) ([2]; lipid concentration 20 μM): 0 | proliferation: increase in cell numbers relative to control wells (control = 100) ([2]; lipid concentration 30 μM): 0 | growth: increase in cell numbers relative to control wells (control = 100) ([3]; lipid concentration 5 μM): 68.8 ± 5.8 | growth: increase in cell numbers relative to control wells (control = 100) ([3]; lipid concentration 10 μM): 52.9 ± 3.9 | growth: increase in cell numbers relative to control wells (control = 100) ([3]; lipid concentration 15 μM): 34.6 ± 7.3 | growth: increase in cell numbers relative to control wells (control = 100) ([3]; lipid concentration 20 μM): 26.0 ± 10.9 | growth: increase in cell numbers relative to control wells (control = 100) ([3]; lipid concentration 30 μM): 4.7 ± 4.8 | IC50 [3]: 4 µM | IC50 ([4]; 10% FBS-supplemented medium): 24.5 µM | proliferation: increase in cell numbers relative to control wells (control = 100) ([4]; lipid concentration 5 μM): 93 ± 12 | proliferation: increase in cell numbers relative to control wells (control = 100) ([4]; lipid concentration 10 μM): 92 ± 6 | proliferation: increase in cell numbers relative to control wells (control = 100) ([4]; lipid concentration 15 μM): 86 ± 10 | proliferation: increase in cell numbers relative to control wells (control = 100) ([4]; lipid concentration 20 μM): 71 ± 8 | proliferation: increase in cell numbers relative to control wells (control = 100) ([4]; lipid concentration 30 μM): 24 ± 4 | IC50 ([5]; 10% FBS-supplemented medium): > 30 µM | proliferation: increase in cell numbers relative to control wells (control = 100) ([5]; lipid concentration 5 μM): 96 ± 10 | proliferation: increase in cell numbers relative to control wells (control = 100) ([5]; lipid concentration 10 μM): 79 ± 12 | proliferation: increase in cell numbers relative to control wells (control = 100) ([5]; lipid concentration 15 μM): 77 ± 13 | proliferation: increase in cell numbers relative to control wells (control = 100) ([5]; lipid concentration 20 μM): 79 ± 16 | proliferation: increase in cell numbers relative to control wells (control = 100) ([5]; lipid concentration 30 μM): 61 ± 13

CCCCCCCCCCCCCCCCOP(=O)([O-])OCC[N+](C)(C)C [D, hexadecylphosphocholine]
IC50 ([3]; Homo sapiens): > 30 µM | growth: increase in cell numbers relative to control wells (control = 100) ([3]; lipid concentration 5 μM): 93.8 ± 16.5 | growth: increase in cell numbers relative to control wells (control = 100) ([3]; lipid concentration 10 μM): 90.3 ± 11.3 | growth: increase in cell numbers relative to control wells (control = 100) ([3]; lipid concentration 15 μM): 67.4 ± 14.5 | growth: increase in cell numbers relative to control wells (control = 100) ([3]; lipid concentration 20 μM): 62.3 ± 10.7 | growth: increase in cell numbers relative to control wells (control = 100) ([3]; lipid concentration 30 μM): 67.2 ± 12.5

CCCCCCCC/C=C\CCCCCCCCCCCCOP(=O)([O-])OCC[N+](C)(C)C [E, erucylphosphocholine]
IC50 ([3]; Homo sapiens): > 30 µM | growth: increase in cell numbers relative to control wells (control = 100) ([3]; lipid concentration 5 μM): 104.0 ± 12.2 | growth: increase in cell numbers relative to control wells (control = 100) ([3]; lipid concentration 10 μM): 102.3 ± 16.1 | growth: increase in cell numbers relative to control wells (control = 100) ([3]; lipid concentration 15 μM): 98.6 ± 7.8 | growth: increase in cell numbers relative to control wells (control = 100) ([3]; lipid concentration 20 μM): 90.2 ± 6.6 | growth: increase in cell numbers relative to control wells (control = 100) ([3]; lipid concentration 30 μM): 60 ± 10.7
